# Test results published in US8420331B2, “Type IV collagen-like immunoreactive peptide” (priority 2006, dated 2013).
# How the values were obtained:
# [1] = tested on: antibody (IgG) in urine of nephritis patients; test: Screening of antigenic site on alpha 5 chain NC1: ELISA with synthetic peptides as coating antigen; format: binding, human
# Description: A preliminary test was carried out, using the ELISA method, in which NC1 as the antigen for coating was replaced with synthetic peptides. The measurement conditions were: antigen concentration: 10 μg/mL (10 mM PBS), 100 μL/well; blocking agent: Block Ace (manufactured by Dainippon Pharmaceutical Co., Ltd.) diluted to 25%, 250 μL/well; urine: human 20- to 100-fold dilution; second antibody (enzyme-labeled anti-human IgG antibody): ×800; and substrate solution: TMB (+) (manufactured by DAKO Corp). The specimen was diluted to 20- to 100-fold, unlike the original fourfold dilution of NC1 as the antigen. […] Accordingly, a main test was carried out using NC1 of the alpha 5 chain. Note that 301 contained the amino acid sequence about 5 to 18 from the N-terminus on the alpha 3 chain corresponding to Goodpasture syndrome specified by computer software. Furthermore, it was possible to check alpha chains other than the alpha 5 chain, such as 301. […] Therefore, it was possible to use both antigens as nephritis detection reagents.
# A test was carried out using the ELISA method, in which NC1 as the antigen for coating was replaced with synthetic peptides, under the same conditions as those described above.
# The peptides of the alpha 5 chain were prepared as described below. Fifteen synthetic peptides were prepared from the whole region of the alpha 5 chain NC1, in which a first unit of 20 amino acid residues was selected from the N-terminus, and subsequent units, each containing 20 amino acid residues, were selected with 5 amino acid residues overlapping each other (hereinafter referred to as yp01 to yp15 (H4NA5-1 to 5-15 in FIG. 6), yp15 containing more than 20 amino acid residues). […] Thus, the five peptides were antigenic sites common to the specimen A, the specimen B, and IgA nephropathy which were derived from different diseases. As described above, bovine glomerulus-derived NC1 and triple helix have substantially the same reactivity with nephritis urine specimens, and both are considered to be common antigens to nephritis. Thus, the triple helix (7S and/or the central helical domain) of the alpha 5 chain and peptides thereof can be considered as immunoreactive peptide candidates. The whole alpha 5 chain may be used as an antigen. However, in such a case, a time-consuming process is required.
# [2] = tested on: rabbits (female); test: ELISA antibody level in serum of peptide-immunised rabbits (peptide-coated microplate); format: in vivo; settings: rabbit serum
# Description: (§1) Peptides 0.3 mg/mL (0.15 mg only for initial administration) together with the same amount of FCA were intradermally administered to rabbits (female) once in two weeks, four times in total.
# Furthermore, in the ELISA method in which the microplate was coated with the peptide yp12 (SEQ ID NO: 6) (10 μg/mL), in 7 weeks after the initial administration, at a dilution of 32,000 fold, the antibody level in serum reached 3.00, which is in the vicinity of the upper limit of measurement of the absorptiometer.
# [3] = tested on: rabbits (female); test: Nephritis model using immunoreactive peptide as inducer, rabbits, urinary protein; format: in vivo, rabbit; settings: peptide 0.3 mg/mL with FCA intradermally once in two weeks, four times
# Description: The selected peptides can be used as an inducer of nephritis independently and/or in combination with each other. Although yp08 (SEQ ID NO: 8) and yp12 (SEQ ID NO: 6) were used as peptides and rabbits and guinea pigs were used as animals, the peptides, animals, and administration methods are not limited thereto.
# as §1
# [4] = tested on: guinea pigs (female); test: ELISA antibody level in serum of peptide-immunised guinea pigs (yp12-coated microplate); format: in vivo; settings: guinea pig serum, dilution 8,000 fold, 7 weeks after initial administration
# Description: Peptides 0.1 mg/mL together with the same amount of FCA were intradermally administered to guinea pigs (female) once in two weeks, four times in total.
# Furthermore, in the ELISA method in which the microplate was coated with the peptide yp12 (SEQ ID NO: 6) (10 μg/mL), in 7 weeks after the initial administration, at a dilution of 8,000 fold, the antibody level in guinea pig serum reached 3.00, which is in the vicinity of the upper limit of measurement of the absorptiometer. Furthermore, intra-abdominal administration to rats or mice of these anti-immunoreactive peptide antibodies (antiserum) enabled production of models of nephritis which was weak, close to that of human, and slowly progressive, unlike the administration of conventional anti-NC1 antibodies (antiserum).
# [5] = specimen A (chronic nephritis: No. 38)
# [6] = specimen B (diabetic nephritis: No. 42)
Substance,reaction with urine specimen ([1]; IgA nephropathy),"reaction with urine specimen [1, 5]","reaction with urine specimen [1, 6]","ELISA antibody level in serum (A450 nm) ([2]; dilution ×8,000)",urinary protein [3],"ELISA antibody level in serum (A450 nm) ([2]; dilution 32,000 fold, 7 weeks after initial administration)",ELISA antibody level in serum (A450 nm) [4]
"GWDSL WIGYS FMMHT SAGAE (GWDSLWIGYSFMMHTSAGAE; peptide with homology to Type IV collagen) [yp10, synthetic 20-residue peptide from human type IV collagen alpha 5 chain NC1]",strongly reacted,strongly reacted,strongly reacted,,,,
"STMPF MFCNI NNVCN FASRN (STMPFMFCNINNVCNFASRN; peptide with homology to Type IV collagen) [yp05, synthetic 20-residue peptide from human type IV collagen alpha 5 chain NC1]",strongly reacted,strongly reacted,strongly reacted,,,,
"PFISR CAVCE APAVV IAVHS (PFISRCAVCEAPAVVIAVHS; peptide with homology to Type IV collagen) [yp08, synthetic 20-residue peptide from human type IV collagen alpha 5 chain NC1]",strongly reacted,strongly reacted,strongly reacted,3.00,+2,,
"GRGTC NYYAN SYSFW LATVD (GRGTCNYYANSYSFWLATVD; peptide with homology to Type IV collagen) [yp13, synthetic 20-residue peptide from human type IV collagen alpha 5 chain NC1]",strongly reacted,strongly reacted,strongly reacted,,,,
"SCLEE FRSAP FIECH GRGTC (SCLEEFRSAPFIECHGRGTC; peptide with homology to Type IV collagen) [yp12, synthetic 20-residue peptide from human type IV collagen alpha 5 chain NC1]",strongly reacted,strongly reacted,strongly reacted,,+2,3.00,3.00
